# Literature values as cited in the CATMoS acute toxicity set (Mansouri et al. 2021).
# Values joined by “and” are separate entries in the source; they are usually repeats but may differ in a detail not shown here. Identical values can stand only once.
# Assay: rat acute oral toxicity
# Conditions: in vivo
# From the text: […]The data set underlying the modeling effort for this project was initially compiled by NICEATM and U.S. EPA’s CCTE. Briefly, LD50 data were collected from rat acute oral systemic toxicity tests, including limit tests, ranges/confidence intervals, and discrete LD50 values. The full data set included 21,200 LD50 entries for 15,688 substances. […] Data were reviewed to ensure that LD50 values with obvious errors in the extracted data such as unit conversion errors (e.g., comma and decimal separator misplacements) were either fixed or removed. After this review, 16,209 LD50 values remained. Many of the chemicals represented had multiple LD50 entries, requiring that a single representative value per Chemical Abstracts Service Registry Number (CASRN) identifier be defined to facilitate modeling efforts. Based on ATWG feedback and to define the representative LD50 as a protective value while accounting for the distribution across multiple LD50s, the median of the lowest quartile was computed using only discrete LD50 values (omitting limit test data and range and confidence interval data). A detailed summary of the data compilation is available online on the NICEATM webpage dedicated to the collaborative modeling project (NTP 2020).
# […][…] For categorical designations, limit test and range/confidence interval LD50 data were integrated wherever possible. As such, the number of chemicals with end point values/calls varies across the modeling end points (Table 3) based on whether chemicals had representative LD50 values and/or other data. If a chemical had both, the representative value was used to determine categorical calls rather than limit test data. Some data were useable only for certain end points and categories depending on the thresholds. For example, ranges that spanned multiple hazard categories were considered only for the binary (very toxic/nontoxic) end points and omitted from rendering a determination for hazard category assignment.
# […]The final data set comprising 11,992 chemicals was split into training and evaluation sets […], respectively. This process was performed semirandomly by ordering chemicals based on the five end points (categorical and continuous LD50 values) and partitioning every fourth record into the evaluation set accordingly. This approach was taken to ensure an equivalent distribution of the LD50 values and the different hazard categories between the training and the evaluation sets without supervised sampling of the chemicals based on structures (Figure 1A). The sources of the chemical structures were also kept equivalent between the two sets, with chemical structures obtained from DSSTox, being the highest quality, representing over 75% of each set (Figure 1B).
row,Structure (SMILES),LD50
1,CCCCOc1ccc(CC(=O)NO)cc1,3370 mg/kg
2,CCC(C)(C)c1ccc2c(c1)C(=O)c1ccccc1C2=O,1600 mg/kg
3,CCCCCCCCCCCCCCCCOCCOCCOCCOCCOCCOCCOCCOCCOCCOCCOCCOCCOCCOCCOCCOCCOCCOCCOCCOCCO,2500 mg/kg
4,CC(C)CCOC(=S)S,765 mg/kg
5,CC(C)N(CCON=C1CCCCCC1=Cc1ccccc1)C(C)C,537 mg/kg
6,COc1cc(NC(=O)OCCCN2CCN(c3ccccc3)CC2)cc(OC)c1OC,900 mg/kg
7,CCOP(=O)(OCC)SCn1nc(Cl)c(C)cc1=O,27 mg/kg
8,CCCN(CCC)c1c([N+](=O)[O-])cc(C(F)(F)F)c(N)c1[N+](=O)[O-],15400 mg/kg
9,CCOC(=O)[N-]c1c[n+](N2CCOCC2)no1,1050 mg/kg
10,Cc1cccc(C)c1N(COC(C)C)C(=O)CCl,975 mg/kg
11,Cc1ccc2ccc(=O)oc2c1,3800 mg/kg
12,CN(C)C(=O)C(CCN1CCC(O)(c2ccc(Cl)cc2)CC1)(c1ccccc1)c1ccccc1,185 mg/kg and 98 mg/kg
13,CNC(=O)Oc1c(C(C)C)ccc(C)c1Cl,250 mg/kg
14,CCCP(=O)(CCC)CCC,1410 mg/kg
15,CCCCC1OC(=O)c2ccccc21 (stereo not given),2450 mg/kg
16,C=CC(CCC(=O)O)OC(C)=O (stereo not given),543 mg/kg
17,CCC(OC(N)=O)c1ccccc1Cl (stereo not given),710 mg/kg
18,O=c1ccc2cc3ccoc3c(O)c2o1,480 mg/kg
19,COc1nc(Cl)nc(OC)n1,870 mg/kg
20,CN1C(=O)CN=C(c2ccccc2F)c2cc([N+](=O)[O-])ccc21,415 mg/kg
21,CC(C)(C)c1ccc(CCC=O)cc1,2700 mg/kg
22,COc1ccc2c(c1)N(CCC1CCCCN1C)c1ccccc1S2 (stereo not given),1130 mg/kg
23,CCOCCOc1ccc(Cl)cc1Cl,1410 mg/kg
24,Cc1cc(O)ccc1S(C)(=O)=O,7000 mg/kg
25,COc1ccc2c(c1)OC(C)(C)C(c1ccccc1)=C2c1ccc(OCCN2CCCC2)cc1,150 mg/kg

row,Structure (SMILES),LD50
1,CC(C)NCC(O)COc1cccc2cc(C(C)O)oc12 (stereo not given),2130 mg/kg
2,Clc1ccc(Cn2c(CN3CCCC3)nc3ccccc32)cc1,1950 mg/kg
3,C/N=N/Nc1ccccc1,420 mg/kg
4,CCN1CCC(=C(c2ccccc2)c2ccccc2)C1,166 mg/kg and 450 mg/kg
5,CCNC(C)Cc1cccc(C(F)(F)F)c1 (stereo not given),130 mg/kg
6,COC(=O)[C@H](C)N(OC)c1c(C)cccc1C,566 mg/kg
7,CC(C)CCP(=O)(CCC(C)C)CCC(C)C,2240 mg/kg
8,CCOc1ccc(Cc2nc(C)cc3cc(OC)c(OC)cc23)cc1OC,1960 mg/kg and 2070 mg/kg
9,CC(O)C(=O)O (stereo not given),2100 mg/kg
10,CC(COc1ccccc1)N(CCCl)Cc1ccccc1 (stereo not given),2500 mg/kg
11,Clc1ccc2c(c1)C(c1ccccc1)=NCc1nncn1-2,2500 mg/kg
12,CCCc1ccn[nH]1,616 mg/kg
13,COS(=O)(=O)OC,205 mg/kg
14,CC(=O)OCCOCCOCCOC(C)=O,15600 mg/kg
15,CCN(CC)c1nc(NC(C)C)nc(OC)n1,885 mg/kg
16,CNc1ccc(C(O)(c2ccc(N(C)C)cc2)c2ccc(N(C)C)cc2)cc1,500 mg/kg
17,Cc1ccc(Oc2cc(SCC(=O)NN)ncn2)cc1,460 mg/kg
18,CC(c1ccccc1)c1ccccc1CCl (stereo not given),4700 mg/kg
19,N=C(S)NN=Nc1ccc(Cl)c(Cl)c1,1 mg/kg
20,S=P(OCCCl)(OCCCl)OCCCl,820 mg/kg
21,"CC(Cc1ccc(C(C)(C)C)cc1)CN1C[C@@H](C)O[C@@H](C)C1 (single isomer, unassigned)",3540 mg/kg
22,CC(=S)Nc1ccccc1,2640 mg/kg
23,CNC(=O)Oc1cccc2c1OC(C)(C)O2,40 mg/kg
24,COC(=S)SSC(Cl)(Cl)Cl,1540 mg/kg
25,CCc1ccc(C)[n+](C(C)CCC(C)(C)CC(C)(C)C)c1 (stereo not given),540 mg/kg

row,Structure (SMILES),LD50
1,CCc1cccc(CC)c1N(CNC(C)=O)C(=O)CCl,3100 mg/kg
2,CC1=NOC(=O)/C1=N\Nc1ccccc1Cl,126 mg/kg
3,Cc1ccc(C(C)C)cc1O,810 mg/kg
4,CC(C)=CCN(CC=C(C)C)CCC(C)(C(N)=O)c1cccc2ccccc12 (stereo not given),353 mg/kg
5,CC(C)=CCC1=C(O)C(C(=O)CC(C)C)=C(O)C(CC=C(C)C)(CC=C(C)C)C1=O,100 mg/kg
6,CCN(CC)CCOC(=O)C(O)(c1ccccc1)c1ccccc1,184 mg/kg
7,CC(C)(C)CC(C)(C)S,52 mg/kg
8,S=C(Cl)Cl,929 mg/kg
9,CCOCC(Cl)C(OCC)OCC (stereo not given),1320 mg/kg
10,CCNCC(O)c1cccc(O)c1 (stereo not given),114 mg/kg
11,O=C(O)c1cccnc1C(=O)O,1550 mg/kg
12,CNC(=O)Oc1cccc2c1OCCO2,126 mg/kg
13,CC=CC(C)C1(CC)C(=O)NC(=O)NC1=O (stereo not given),20 mg/kg
14,COc1c(C)ccc(C)c1N(COC(C)C)C(=O)CCl,1730 mg/kg
15,CON(C)C(=O)Nc1ccc(Br)c(Cl)c1,2150 mg/kg
16,CC(C)(C)NC[C@H](O)COc1nsnc1N1CCOCC1,1030 mg/kg
17,CS(=O)(=O)Oc1ccc(Cl)cc1Cl,2790 mg/kg
18,OCCCS,116 mg/kg
19,CC(=O)OCC(C)O (stereo not given),18000 mg/kg
20,O=C1CCCCC(=O)N1,22600 mg/kg
21,Cc1ccc(OP(=O)(Oc2ccc(C)cc2)Oc2ccc(C)cc2)cc1,12800 mg/kg
22,CCN(CC)CCNc1c2ccccc2nc2cccc([N+](=O)[O-])c12,42.2 mg/kg
23,C=CCc1ccc(OC=O)c(OC)c1,3400 mg/kg
24,O=C1C=CCCC1,220 mg/kg
25,CCCCOC(=O)CCCOc1ccc(Cl)cc1Cl,300 mg/kg

row,Structure (SMILES),LD50
1,C=CCNc1nc(NCC=C)nc(N(CCCCCCN(c2nc(NCC=C)nc(NCC=C)n2)C2CC(C)(C)NC(C)(C)C2)C2CC(C)(C)NC(C)(C)C2)n1,4010 mg/kg
2,CN,1600 mg/kg
3,COc1cccc(C(=O)NC2CC3CCC(C2)N3Cc2ccccc2)c1OC (stereo not given),147 mg/kg
4,Nc1ccc(C(=O)O)cc1,8000 mg/kg
5,O=C(O)c1cc(N=Nc2ccc(-c3ccc(N=Nc4c(O)ccc(/N=N/c5cc(S(=O)(=O)O)ccc5O)c4O)cc3)cc2)ccc1O,12100 mg/kg
6,COC(=O)C(=O)c1ccccc1,6800 mg/kg
7,OCC1CC2CCC1C2 (stereo not given),1600 mg/kg
8,O=C(OCCOc1ccc(Cl)cc1Cl)c1ccccc1,1700 mg/kg
9,ClCc1c(Cl)cc(Cl)cc1Cl,3080 mg/kg
10,COC(=O)c1ccc(N=NN(C)C)cc1,52 mg/kg
11,CNC(=O)Oc1ccccc1C1OCCCO1,142 mg/kg
12,CN1C(=O)CN=C(c2ccccc2F)c2c1ccc(NC(=O)N1CCOCC1)c2Cl,1250 mg/kg
13,COc1ccccc1OC(=O)[C@H](C)c1ccc(CC(C)C)cc1,2060 mg/kg
14,CNC(=O)Oc1cc(C(C)C)c(OC(=O)NC)cc1C,60 mg/kg
15,O=C1OC(=O)C2CC=CCC12 (stereo not given),5410 mg/kg
16,CC(=O)C(/N=N/c1ccc(-c2ccc(/N=N/C(C(C)=O)C(=O)Nc3ccccc3)c(Cl)c2)cc1Cl)C(=O)Nc1ccccc1 (stereo not given),2230 mg/kg
17,Cc1cc2c(cc1C)C(=O)c1n[nH]nc1C2=O,980 mg/kg
18,COC(=O)CCBr,1600 mg/kg
19,CN(C)N=Nc1ccc(-c2ccccc2)cc1,347 mg/kg
20,CC(=O)OCC1=C(C(=O)O)N2C(=O)[C@@H](NC(=O)CSc3ccncc3)[C@H]2SC1,16400 mg/kg
21,Cc1ccccc1OCC(O)CN1CC=CCC1 (stereo not given),340 mg/kg
22,Nc1ccc2cc(S(=O)(=O)O)ccc2c1CS(=O)(=O)O,9200 mg/kg
23,COc1ccccc1,3700 mg/kg
24,CC(=O)OC(c1ccc(Cl)c(Cl)c1)C(Cl)(Cl)Cl (stereo not given),10000 mg/kg
25,CC(NC(C)(C)C)C(=O)c1cccc(Cl)c1 (stereo not given),482 mg/kg and 600 mg/kg

row,Structure (SMILES),LD50
1,O=C(Cl)c1ccc([N+](=O)[O-])cc1,5600 mg/kg
2,Cc1cccc(C)c1N(CCCC(=O)O)C(=O)c1ccc(Cl)cc1,1900 mg/kg
3,c1cc2ccc3cccc4ccc(c1)c2c34,2700 mg/kg
4,CC(Cc1ccccc1)NCC1COc2ccccc2C1=O (stereo not given),500 mg/kg
5,O=C(O)C(O)(c1ccccc1)C1CCCCC1 (stereo not given),2670 mg/kg
6,CCOP(=O)(OCC)OC(=C(Cl)Br)c1ccc(Cl)cc1Cl,19.3 mg/kg
7,CS(=O)(=O)OC[C@@H]1O[C@H]1[C@@H]1O[C@H]1COS(C)(=O)=O,225 mg/kg
8,CCOC(C1=NCCCN1)c1cccc(Cl)c1 (stereo not given),695 mg/kg
9,C=CCOC(=O)CCCCCCC,570 mg/kg
10,Nc1c([N+](=O)[O-])cc(Cl)cc1[N+](=O)[O-],400 mg/kg
11,CCC(C)NP1(=S)OCc2cc([N+](=O)[O-])ccc2O1 (stereo not given),125 mg/kg
12,CC1=C(C(=O)OC(C)C)C(c2cccc([N+](=O)[O-])c2)C(C(=O)OC2CN(C(c3ccccc3)c3ccccc3)C2)=C(N)N1 (stereo not given),1270 mg/kg
13,CN(C)CCC#N,2600 mg/kg
14,O=S1(=O)CC(Cl)(Cl)C(Cl)(Cl)C1,87 mg/kg
15,Cc1ccccn1,790 mg/kg
16,N#Cc1cccc(C#N)c1,860 mg/kg
17,COP(=O)(Oc1ccc([N+](=O)[O-])c(C)c1)SC (stereo not given),315 mg/kg
18,O=CC(Cl)(Cl)Cl,480 mg/kg
19,CCC(C)c1cc([N+](=O)[O-])cc([N+](=O)[O-])c1OC(=O)OC(C)C (stereo not given),59 mg/kg
20,CC(C)c1ccc(C#N)cc1,3900 mg/kg
21,CC(=O)Oc1cc(C(F)(F)F)ccc1C(=O)O,402 mg/kg
22,Nc1nc2cc(I)ccc2o1,1000 mg/kg
23,Nc1ccc(S(=O)(=O)Nc2ccc(NC(=O)CCC(=O)O)cc2)cc1,1500 mg/kg
24,COCN(C)N=O,700 mg/kg
25,CCN(CC)Cc1cc(-c2ccccc2)ccc1O,28 mg/kg
